Experimental data from US20210161146A1, “COMPOSITIONS AND METHODS FOR INHIBITING PATHOGENS ON PLANTS” (CH2O INCORPORATED, priority 2018, published 2021).

What was measured:
[1] = test system: Red Blotch Virus (Grablovirus or GRBav); assay: Field trials on grape vines infected with Red Blotch Virus; assay type: in vivo
Experimental: Field trials were performed on grape vines infected with Red Blotch Virus (Grablovirus or GRBav).
Grape vines were treated with (36% 36% hydrochloric acid, 8% 60% active HEDPA, 0.5% 120 grain vinegar, 0.5% 85% phosphoric acid, and 55% water, all by weight) and (3.1% 60% active HEDPA, 1.6% 45% active potassium hydroxide, […], all by weight). ClO2 was made using a CH2O-ClO2 generator, and applied using an orchard sprayer. 200 gallons of treated water was applied per acre, and the treated water contained 15 ppm ClO2. The air temperature was 70° F.-90° F. on the days of application.
Half of the treated rows were pruned with shears dipped in water containing 30 to 50 ppm chlorine bleach.

Jack Frost Blight = assay: Orchard #6 field treatment of blight-infected apple trees; assay type: in vivo
Experimental: Apple trees at Orchard #6 infected with Jack Frost Blight (FIGS. 9A, 9B and 9C) were treated with 2 ppm (FIG. 10A), 5 ppm, 10 ppm (FIG. 10B) or 25 ppm (FIG. 10C) of ClO2. While blight was easily found in untreated areas of the block, only 2 strikes were found in the 2 ppm test area, no strikes were found in the 5 ppm area, 1 strike was found in the 10 ppm area, and 1 strike was found at the very end of the 25 ppm area (it is unclear whether that part of the area was actually treated or treated fully).

[2] = test system: Erwinia amylovora ("Fire Blight"); assay: Field experiment in apple and pear tree orchard infected with Fire Blight; assay type: in vivo
Experimental: An apple and pear tree orchard infected with Erwinia amylovora (“Fire Blight”) was treated with 2 ppm, 5 ppm, 10 ppm, and 25 ppm ClO2 as described herein. Previous unsuccessful treatments included foliar medications and metal (Cu) suspended in oil, and Tetramyacin and Oxytetracycline application. These are very expensive medication option(s) that are becoming obsolete w/resistance.
The treatment protocol at this orchard included a three step approach: a) irrigation water; b) topical application before first bloom (e.g., begin topical treatment before primary bloom event and all the way through second blooming event); and c) ooze treatment/vector suppression. Given the timing of this trial, only step C is relevant.
Trees were sprayed when the temperature reached a minimum of 50° F. The temperature for treating bacterial ooze should be between 75-90° F., with highest “safe” rates of ClO2 used to prevent spread through insect and pollination activity. The residual phosphorus (from phosphonates) should have lasting protection properties even days after a topical application.
Rows were marked based on the concentration of ClO2 to be applied. Each concentration rate was applied slowly over four rows of trees. Two rows of trees were left untreated between each of the treated rows to prevent drift. After an application at a particular concentration was complete, the pump speed was increased or decreased to adjust the ClO2 concentration for the next application.

[3] = test system: Erwinia amylovora ("Fire Blight"); settings: before the ClO2 trial; cited from earlier work

Compound: [O][Cl+][O-] [ClO2, chlorine dioxide]
- less GRBav than the untreated control area ([1]; 15 ppm ClO2, 200 gallons per acre, pruned with ClO2-sanitized shears): approximately 85%
- less virus than the untreated control area ([1]; 15 ppm ClO2, 200 gallons per acre, pruned with shears dipped in chlorine bleach): approximately 75%
- reduction in the amount of virus on the grape plants ([1]; 15 ppm ClO2, both pruning groups): 75-85%
- blight strikes found in test area (Jack Frost Blight; 2 ppm ClO2 test area): 2 strikes
- blight strikes found in test area (Jack Frost Blight; 5 ppm ClO2 area): no strikes
- blight strikes found in test area (Jack Frost Blight; 10 ppm ClO2 area): 1 strike
- blight strikes found in test area (Jack Frost Blight; 25 ppm ClO2 area, very end (unclear whether treated fully)): 1 strike
- new blight strikes observed ([2]; 2 ppm zone): One
- new blight found ([2]; remaining test zones (5 ppm, 10 ppm, 25 ppm)): no new blight
- ClO2 concentration effective for disease control ([2]; topical spray on infected trees): ≥ 5 ppm

Compound: Tetramyacin
- outcome of previous treatments of the orchard [3]: unsuccessful
